Species on record: Rattus norvegicus
Test: Open TG-GATES - Regimen: Daily Repeat
Type: toxicity, organism-based, Sprague-Dawley
Design: regimen Daily Repeat, gender Male, age 6 weeks
Conditions: in vivo, po, 300 mg/kg, route gavage, dose level Middle; for APTT / Bas / Eos / Fbg / Hb / Ht / Lym / MCH / MCHC / MCV / Mono / Neu / PT / Plat / RBC / Ret / WBC: tissue Blood; for KIDNEY_L / KIDNEY_R / KIDNEY_TOTAL: tissue Kidney; for LIVER: tissue Liver; for A/G / ALP / ALT / AST / BUN / CRE / Ca / Cl / DBIL / GLC / IP / K / LDH / Na / PL / RALB / TBIL / TC / TG / TP / gamma-GTP: tissue Plasma

Q: What does the source list for `CCOC(=O)CCC(=O)O[C@H]1[C@H](O[C@@H]2[C@@H](C)[C@H](O[C@H]3C[C@@](C)(OC)[C@@H](O)[C@H](C)O3)[C@@H](C)C(=O)O[C@H](CC)[C@@](C)(O)[C@H](O)[C@@H](C)C(=O)[C@H](C)C[C@@]2(C)O)O[C@H](C)C[C@@H]1N(C)C` [ERYTHROMYCIN ETHYLSUCCINATE]?
A: TERMINAL_BW (72 h, time 3 day): 237.7 g; APTT (72 h, time 3 day): 21.3 s; Bas (72 h, time 3 day): 0%; Eos (72 h, time 3 day): 1%; Fbg (72 h, time 3 day): 311.6 mg/dL; Hb (72 h, time 3 day): 13.5 g/dL; Ht (72 h, time 3 day): 39.3%; Lym (72 h, time 3 day): 83.2%; MCH (72 h, time 3 day): 21.5 pg; MCHC (72 h, time 3 day): 34.4%; MCV (72 h, time 3 day): 62.7 fL; Mono (72 h, time 3 day): 3%; Neu (72 h, time 3 day): 11.8%; PT (72 h, time 3 day): 15.8 s; Plat (72 h, time 3 day): 114.1 x10_4/uL; RBC (72 h, time 3 day): 627.6 x10_4/ul; Ret (72 h, time 3 day): 5.1%; WBC (72 h, time 3 day): 94.1 x10_2/uL; KIDNEY_L (72 h, time 3 day): 1 g; KIDNEY_R (72 h, time 3 day): 1 g; KIDNEY_TOTAL (72 h, time 3 day): 2 g; LIVER (72 h, time 3 day): 10.9 g; A/G (72 h, time 3 day): 1.2; ALP (72 h, time 3 day): 1728.8 IU/L; ALT (72 h, time 3 day): 44 IU/L; AST (72 h, time 3 day): 76 IU/L; BUN (72 h, time 3 day): 18.6 mg/dL; CRE (72 h, time 3 day): 0.2 mg/dL; Ca (72 h, time 3 day): 10.4 mg/dL; Cl (72 h, time 3 day): 108 meq/L; DBIL (72 h, time 3 day): 0 mg/dL; GLC (72 h, time 3 day): 192.6 mg/dL; IP (72 h, time 3 day): 7.3 mg/dL; K (72 h, time 3 day): 4.2 meq/L; LDH (72 h, time 3 day): 261 IU/L; Na (72 h, time 3 day): 141.2 meq/L; PL (72 h, time 3 day): 133.8 mg/dL; RALB (72 h, time 3 day): 3 g/dL; TBIL (72 h, time 3 day): 0.016 mg/dL; TC (72 h, time 3 day): 72.2 mg/dL; TG (72 h, time 3 day): 100.6 mg/dL; TP (72 h, time 3 day): 5.5 g/dL; gamma-GTP (72 h, time 3 day): 1.4 IU/L; TERMINAL_BW ([…], time 7 day): 269.9 g; TERMINAL_BW ([…], time 14 day): 321.9 g; TERMINAL_BW ([…], time 28 day): 391.2 g; APTT ([…], time 7 day): 22.2 s; Bas ([…], time 7 day): 0%; Eos ([…], time 7 day): 1%; Fbg ([…], time 7 day): 331.6 mg/dL; Hb ([…], time 7 day): 13.7 g/dL; Ht ([…], time 7 day): 40.6%; Lym ([…], time 7 day): 84.8%; MCH ([…], time 7 day): 20.9 pg; MCHC ([…], time 7 day): 33.6%; MCV ([…], time 7 day): 62.3 fL; Mono ([…], time 7 day): 2.2%; Neu ([…], time 7 day): 11.2%; PT ([…], time 7 day): 16.3 s; Plat ([…], time 7 day): 120.3 x10_4/uL; RBC ([…], time 7 day): 653 x10_4/ul; Ret ([…], time 7 day): 6.3%; WBC ([…], time 7 day): 86.1 x10_2/uL; APTT ([…], time 14 day): 22.1 s; Bas ([…], time 14 day): 0%; Eos ([…], time 14 day): 1%; Fbg ([…], time 14 day): 335.6 mg/dL; Hb ([…], time 14 day): 14.1 g/dL; Ht ([…], time 14 day): 40.7%; Lym ([…], time 14 day): 87.4%; MCH ([…], time 14 day): 20.5 pg; MCHC ([…], time 14 day): 34.7%; MCV ([…], time 14 day): 58.9 fL; Mono ([…], time 14 day): 2.2%; Neu ([…], time 14 day): 8.2%; PT ([…], time 14 day): 16.1 s; Plat ([…], time 14 day): 116 x10_4/uL; RBC ([…], time 14 day): 690 x10_4/ul; Ret ([…], time 14 day): 4.9%; WBC ([…], time 14 day): 110.3 x10_2/uL; APTT ([…], time 28 day): 24.1 s; Bas ([…], time 28 day): 0%; Eos ([…], time 28 day): 1.2%; Fbg ([…], time 28 day): 339.2 mg/dL; Hb ([…], time 28 day): 15.6 g/dL; Ht ([…], time 28 day): 45.3%; Lym ([…], time 28 day): 85.4%; MCH ([…], time 28 day): 19 pg; MCHC ([…], time 28 day): 34.3%; MCV ([…], time 28 day): 55.3 fL; Mono ([…], time 28 day): 2.4%; Neu ([…], time 28 day): 9.2%; PT ([…], time 28 day): 16 s; Plat ([…], time 28 day): 99.2 x10_4/uL; RBC ([…], time 28 day): 819.8 x10_4/ul; Ret ([…], time 28 day): 2.5%; WBC ([…], time 28 day): 96.8 x10_2/uL; KIDNEY_L ([…], time 7 day): 1.1 g; KIDNEY_R ([…], time 7 day): 1.1 g; KIDNEY_TOTAL ([…], time 7 day): 2.2 g; KIDNEY_L ([…], time 14 day): 1.3 g; KIDNEY_R ([…], time 14 day): 1.3 g; KIDNEY_TOTAL ([…], time 14 day): 2.6 g; KIDNEY_L ([…], time 28 day): 1.4 g; KIDNEY_R ([…], time 28 day): 1.4 g; KIDNEY_TOTAL ([…], time 28 day): 2.9 g; LIVER ([…], time 7 day): 12.2 g; LIVER ([…], time 14 day): 13.9 g; LIVER ([…], time 28 day): 15.4 g; A/G ([…], time 7 day): 1.2; ALP ([…], time 7 day): 1819.6 IU/L; ALT ([…], time 7 day): 42.4 IU/L; AST ([…], time 7 day): 70.4 IU/L; BUN ([…], time 7 day): 19 mg/dL; CRE ([…], time 7 day): 0.2 mg/dL; Ca ([…], time 7 day): 10.6 mg/dL; Cl ([…], time 7 day): 107.6 meq/L; DBIL ([…], time 7 day): 0 mg/dL; GLC ([…], time 7 day): 194.6 mg/dL; IP ([…], time 7 day): 7.3 mg/dL; K ([…], time 7 day): 4.1 meq/L; LDH ([…], time 7 day): 185.6 IU/L; Na ([…], time 7 day): 142 meq/L; PL ([…], time 7 day): 148.2 mg/dL; RALB ([…], time 7 day): 3 g/dL; TBIL ([…], time 7 day): 0.002 mg/dL; TC ([…], time 7 day): 76 mg/dL; TG ([…], time 7 day): 123.6 mg/dL; TP ([…], time 7 day): 5.5 g/dL; gamma-GTP ([…], time 7 day): 1.6 IU/L; A/G ([…], time 14 day): 1.1; ALP ([…], time 14 day): 1368.6 IU/L; ALT ([…], time 14 day): 35 IU/L; AST ([…], time 14 day): 70.2 IU/L; BUN ([…], time 14 day): 19.4 mg/dL; CRE ([…], time 14 day): 0.2 mg/dL; Ca ([…], time 14 day): 10.4 mg/dL; Cl ([…], time 14 day): 107.6 meq/L; DBIL ([…], time 14 day): 0 mg/dL; GLC ([…], time 14 day): 206.6 mg/dL; IP ([…], time 14 day): 7.2 mg/dL; K ([…], time 14 day): 4 meq/L; LDH ([…], time 14 day): 157.8 IU/L; Na ([…], time 14 day): 141.8 meq/L; PL ([…], time 14 day): 146.8 mg/dL; RALB ([…], time 14 day): 2.9 g/dL; TBIL ([…], time 14 day): 0.01 mg/dL; TC ([…], time 14 day): 79.8 mg/dL; TG ([…], time 14 day): 105.2 mg/dL; TP ([…], time 14 day): 5.5 g/dL; gamma-GTP ([…], time 14 day): 1.6 IU/L; A/G ([…], time 28 day): 1.1; ALP ([…], time 28 day): 1061.2 IU/L; ALT ([…], time 28 day): 36.8 IU/L; AST ([…], time 28 day): 59.2 IU/L; BUN ([…], time 28 day): 19.6 mg/dL; CRE ([…], time 28 day): 0.2 mg/dL; Ca ([…], time 28 day): 10.5 mg/dL; Cl ([…], time 28 day): 106.4 meq/L; DBIL ([…], time 28 day): 0 mg/dL; GLC ([…], time 28 day): 203.4 mg/dL; IP ([…], time 28 day): 6.9 mg/dL; K ([…], time 28 day): 4 meq/L; LDH ([…], time 28 day): 130.6 IU/L; Na ([…], time 28 day): 141.4 meq/L; PL ([…], time 28 day): 151.8 mg/dL; RALB ([…], time 28 day): 3.1 g/dL; TBIL ([…], time 28 day): 0.014 mg/dL; TC ([…], time 28 day): 78.2 mg/dL; TG ([…], time 28 day): 140 mg/dL; TP ([…], time 28 day): 5.8 g/dL; gamma-GTP ([…], time 28 day): 2.2 IU/L
